This note sets out measurements from article PMC7345083, “Vancomycin-Lipopeptide Conjugates with High Antimicrobial Activity on Vancomycin-Resistant Enterococci” (Pharmaceuticals, 2020).

The test system of the experiment is Enterococcus faecium UL602570 (vanA, clinical isolate). Format: cell-based. The settings on record: UL602570 (vanA, clinical isolate, 18 h). As for the experimental part: The minimum inhibitory concentration (MIC) was determined by microdilution following the EUCAST and CLSI guidelines via the broth microdilution assay on a 96-well plate. Substances were dissolved in saline solution (0.9%) at a concentration equimolar to 1.28 mg/mL vancomycin. With an increasing hydrophobicity, some substances had to be pre-dissolved in DMSO. The final concentration of DMSO remained below 1.5% and was compared to the DMSO control (no antimicrobial effect was observed up to the highest concentration tested (10%)). All substances were serially diluted on the 96-well plate using Mueller-Hinton-Broth II (cation adjusted). Vancomycin was always used as a control. For bacterial loading, an overnight culture of the referring strain was taken and adjusted to a turbidity corresponding to 10^8 cfu/mL. The bacterial suspension was further diluted to load a bacterial number of 10^6 cfu/mL on the 96-well plate and incubate it for 18 h at 35 ± 1 °C, as described before. MIC was defined as the lowest concentration without visible growth.

Structures are written as SMILES. Values after ≈ are worked out from the molar mass of the structure shown.

In turn, `CCCCCC(=O)N[C@@H](CCCNC(=N)N)C(=O)N[C@@H](CCCNC(=N)N)C(=O)N[C@@H](CCCNC(=N)N)C(=O)N[C@@H](CSC1CC(=O)N(CC2CCC(C(=O)NCCNC(=O)[C@H]3NC(=O)[C@H]4NC(=O)[C@H](NC(=O)[C@@H]5NC(=O)[C@H](CC(N)=O)NC(=O)[C@H](NC(=O)[C@@H](CC(C)C)NC)[C@H](O)c6ccc(c(Cl)c6)Oc6cc5cc(c6O[C@@H]5O[C@H](CO)[C@@H](O)[C@H](O)[C@H]5O[C@H]5C[C@](C)(N)[C@H](O)[C@H](C)O5)Oc5ccc(cc5Cl)[C@H]4O)c4ccc(O)c(c4)-c4c(O)cc(O)cc43)CC2)C1=O)C(N)=O` (stereo partly shown) [VC-R3C-C6] yielded an MIC median of 106.00 µg/mL (≈ 44.2 µM).

`CCCCCCCC(=O)N[C@@H](CCCNC(=N)N)C(=O)N[C@@H](CCCNC(=N)N)C(=O)N[C@@H](CCCNC(=N)N)C(=O)N[C@@H](CSC1CC(=O)N(CC2CCC(C(=O)NCCNC(=O)[C@H]3NC(=O)[C@H]4NC(=O)[C@H](NC(=O)[C@@H]5NC(=O)[C@H](CC(N)=O)NC(=O)[C@H](NC(=O)[C@@H](CC(C)C)NC)[C@H](O)c6ccc(c(Cl)c6)Oc6cc5cc(c6O[C@@H]5O[C@H](CO)[C@@H](O)[C@H](O)[C@H]5O[C@H]5C[C@](C)(N)[C@H](O)[C@H](C)O5)Oc5ccc(cc5Cl)[C@H]4O)c4ccc(O)c(c4)-c4c(O)cc(O)cc43)CC2)C1=O)C(N)=O` (stereo partly shown) [VC-R3C-C8] came in with an MIC median of 9.54 µg/mL (≈ 3.93 µM) and an MIC range of 9.54 to 19.08 µg/mL.

`CCCCCCCCCC(=O)N[C@@H](CCCNC(=N)N)C(=O)N[C@@H](CCCNC(=N)N)C(=O)N[C@@H](CCCNC(=N)N)C(=O)N[C@@H](CSC1CC(=O)N(CC2CCC(C(=O)NCCNC(=O)[C@H]3NC(=O)[C@H]4NC(=O)[C@H](NC(=O)[C@@H]5NC(=O)[C@H](CC(N)=O)NC(=O)[C@H](NC(=O)[C@@H](CC(C)C)NC)[C@H](O)c6ccc(c(Cl)c6)Oc6cc5cc(c6O[C@@H]5O[C@H](CO)[C@@H](O)[C@H](O)[C@H]5O[C@H]5C[C@](C)(N)[C@H](O)[C@H](C)O5)Oc5ccc(cc5Cl)[C@H]4O)c4ccc(O)c(c4)-c4c(O)cc(O)cc43)CC2)C1=O)C(N)=O` (stereo partly shown) [VC-R3C-C10] registered an MIC median of 4.77 µg/mL (≈ 1.94 µM) and an MIC range of 4.77 to 9.53 µg/mL.

With `CCCCCCCCCCCCCC(=O)N[C@@H](CCCNC(=N)N)C(=O)N[C@@H](CCCNC(=N)N)C(=O)N[C@@H](CCCNC(=N)N)C(=O)N[C@@H](CSC1CC(=O)N(CC2CCC(C(=O)NCCNC(=O)[C@H]3NC(=O)[C@H]4NC(=O)[C@H](NC(=O)[C@@H]5NC(=O)[C@H](CC(N)=O)NC(=O)[C@H](NC(=O)[C@@H](CC(C)C)NC)[C@H](O)c6ccc(c(Cl)c6)Oc6cc5cc(c6O[C@@H]5O[C@H](CO)[C@@H](O)[C@H](O)[C@H]5O[C@H]5C[C@](C)(N)[C@H](O)[C@H](C)O5)Oc5ccc(cc5Cl)[C@H]4O)c4ccc(O)c(c4)-c4c(O)cc(O)cc43)CC2)C1=O)C(N)=O` (stereo partly shown) [VC-R3C-C14], the MIC median was 2.45 µg/mL (≈ 0.976 µM) and the MIC range fell in the range of 2.45 to 4.91 µg/mL.

Turning to `CCCCCCCCCCCCCCCC(=O)N[C@@H](CCCNC(=N)N)C(=O)N[C@@H](CCCNC(=N)N)C(=O)N[C@@H](CCCNC(=N)N)C(=O)N[C@@H](CSC1CC(=O)N(CC2CCC(C(=O)NCCNC(=O)[C@H]3NC(=O)[C@H]4NC(=O)[C@H](NC(=O)[C@@H]5NC(=O)[C@H](CC(N)=O)NC(=O)[C@H](NC(=O)[C@@H](CC(C)C)NC)[C@H](O)c6ccc(c(Cl)c6)Oc6cc5cc(c6O[C@@H]5O[C@H](CO)[C@@H](O)[C@H](O)[C@H]5O[C@H]5C[C@](C)(N)[C@H](O)[C@H](C)O5)Oc5ccc(cc5Cl)[C@H]4O)c4ccc(O)c(c4)-c4c(O)cc(O)cc43)CC2)C1=O)C(N)=O` (stereo partly shown) [VC-R3C-C16], the MIC median was found to be 5.00 µg/mL (≈ 1.97 µM) and the MIC range lay within 5.00 to 10.00 µg/mL.

As for `CCCCCCCCCCCCCCCCCC(=O)N[C@@H](CCCNC(=N)N)C(=O)N[C@@H](CCCNC(=N)N)C(=O)N[C@@H](CCCNC(=N)N)C(=O)N[C@@H](CSC1CC(=O)N(CC2CCC(C(=O)NCCNC(=O)[C@H]3NC(=O)[C@H]4NC(=O)[C@H](NC(=O)[C@@H]5NC(=O)[C@H](CC(N)=O)NC(=O)[C@H](NC(=O)[C@@H](CC(C)C)NC)[C@H](O)c6ccc(c(Cl)c6)Oc6cc5cc(c6O[C@@H]5O[C@H](CO)[C@@H](O)[C@H](O)[C@H]5O[C@H]5C[C@](C)(N)[C@H](O)[C@H](C)O5)Oc5ccc(cc5Cl)[C@H]4O)c4ccc(O)c(c4)-c4c(O)cc(O)cc43)CC2)C1=O)C(N)=O` (stereo partly shown) [VC-R3C-C18], the MIC median was determined as 10.17 µg/mL (≈ 3.96 µM) and the MIC range lay within 5.08 to 10.17 µg/mL.

In the case of `CN[C@H](CC(C)C)C(=O)N[C@H]1C(=O)N[C@@H](CC(N)=O)C(=O)N[C@H]2C(=O)N[C@H]3C(=O)N[C@H](C(=O)N[C@H](C(=O)NCCNC(=O)C4CCC(CN5C(=O)CC(SC[C@H](NC(=O)[C@H](CCCNC(=N)N)NC(=O)[C@H](CCCNC(=N)N)NC(=O)[C@@H](N)CCCNC(=N)N)C(N)=O)C5=O)CC4)c4cc(O)cc(O)c4-c4cc3ccc4O)[C@H](O)c3ccc(c(Cl)c3)Oc3cc2cc(c3O[C@@H]2O[C@H](CO)[C@@H](O)[C@H](O)[C@H]2O[C@H]2C[C@](C)(N)[C@H](O)[C@H](C)O2)Oc2ccc(cc2Cl)[C@H]1O` (stereo partly shown) [VC-R3C], the MIC median was 34.75 µg/mL (≈ 15.1 µM) and the MIC range lay within 17.38 to 34.75 µg/mL.

`CCCCCC(=O)N[C@@H](CCCNC(=N)N)C(=O)N[C@@H](CCCNC(=N)N)C(=O)N[C@@H](CCCNC(=N)N)C(=O)N[C@@H](CSC1CC(=O)N(CC2CCC(C(=O)N(C)[C@H](CC(C)C)C(=O)N[C@H]3C(=O)N[C@@H](CC(N)=O)C(=O)N[C@H]4C(=O)N[C@H]5C(=O)N[C@H](C(=O)N[C@H](C(=O)O)c6cc(O)cc(O)c6-c6cc5ccc6O)[C@H](O)c5ccc(c(Cl)c5)Oc5cc4cc(c5O[C@@H]4O[C@H](CO)[C@@H](O)[C@H](O)[C@H]4O[C@H]4C[C@](C)(N)[C@H](O)[C@H](C)O4)Oc4ccc(cc4Cl)[C@H]3O)CC2)C1=O)C(N)=O` (stereo partly shown) [VN-R3C-C6] returned an MIC median of 72.00 µg/mL (≈ 30.6 µM) and an MIC range of 36.00 to 72.00 µg/mL.

On to `CCCCCCCC(=O)N[C@@H](CCCNC(=N)N)C(=O)N[C@@H](CCCNC(=N)N)C(=O)N[C@@H](CCCNC(=N)N)C(=O)N[C@@H](CSC1CC(=O)N(CC2CCC(C(=O)N(C)[C@H](CC(C)C)C(=O)N[C@H]3C(=O)N[C@@H](CC(N)=O)C(=O)N[C@H]4C(=O)N[C@H]5C(=O)N[C@H](C(=O)N[C@H](C(=O)O)c6cc(O)cc(O)c6-c6cc5ccc6O)[C@H](O)c5ccc(c(Cl)c5)Oc5cc4cc(c5O[C@@H]4O[C@H](CO)[C@@H](O)[C@H](O)[C@H]4O[C@H]4C[C@](C)(N)[C@H](O)[C@H](C)O4)Oc4ccc(cc4Cl)[C@H]3O)CC2)C1=O)C(N)=O` (stereo partly shown) [VN-R3C-C8], for which the MIC median was determined as 18.31 µg/mL (≈ 7.68 µM) and the MIC range lay in the range of 9.16 to 18.31 µg/mL.

For `CCCCCCCCCC(=O)N[C@@H](CCCNC(=N)N)C(=O)N[C@@H](CCCNC(=N)N)C(=O)N[C@@H](CCCNC(=N)N)C(=O)N[C@@H](CSC1CC(=O)N(CC2CCC(C(=O)N(C)[C@H](CC(C)C)C(=O)N[C@H]3C(=O)N[C@@H](CC(N)=O)C(=O)N[C@H]4C(=O)N[C@H]5C(=O)N[C@H](C(=O)N[C@H](C(=O)O)c6cc(O)cc(O)c6-c6cc5ccc6O)[C@H](O)c5ccc(c(Cl)c5)Oc5cc4cc(c5O[C@@H]4O[C@H](CO)[C@@H](O)[C@H](O)[C@H]4O[C@H]4C[C@](C)(N)[C@H](O)[C@H](C)O4)Oc4ccc(cc4Cl)[C@H]3O)CC2)C1=O)C(N)=O` (stereo partly shown) [VN-R3C-C10], the MIC median is 4.66 µg/mL (≈ 1.93 µM) and the MIC range lay in the range of 4.66 to 9.31 µg/mL.

Take `CCCCCCCCCCCCCC(=O)N[C@@H](CCCNC(=N)N)C(=O)N[C@@H](CCCNC(=N)N)C(=O)N[C@@H](CCCNC(=N)N)C(=O)N[C@@H](CSC1CC(=O)N(CC2CCC(C(=O)N(C)[C@H](CC(C)C)C(=O)N[C@H]3C(=O)N[C@@H](CC(N)=O)C(=O)N[C@H]4C(=O)N[C@H]5C(=O)N[C@H](C(=O)N[C@H](C(=O)O)c6cc(O)cc(O)c6-c6cc5ccc6O)[C@H](O)c5ccc(c(Cl)c5)Oc5cc4cc(c5O[C@@H]4O[C@H](CO)[C@@H](O)[C@H](O)[C@H]4O[C@H]4C[C@](C)(N)[C@H](O)[C@H](C)O4)Oc4ccc(cc4Cl)[C@H]3O)CC2)C1=O)C(N)=O` (stereo partly shown) [VN-R3C-C14]: the MIC median was determined as 2.41 µg/mL (≈ 0.977 µM) and the MIC range was in the range of 2.41 to 4.81 µg/mL.

As for `CCCCCCCCCCCCCCCC(=O)N[C@@H](CCCNC(=N)N)C(=O)N[C@@H](CCCNC(=N)N)C(=O)N[C@@H](CCCNC(=N)N)C(=O)N[C@@H](CSC1CC(=O)N(CC2CCC(C(=O)N(C)[C@H](CC(C)C)C(=O)N[C@H]3C(=O)N[C@@H](CC(N)=O)C(=O)N[C@H]4C(=O)N[C@H]5C(=O)N[C@H](C(=O)N[C@H](C(=O)O)c6cc(O)cc(O)c6-c6cc5ccc6O)[C@H](O)c5ccc(c(Cl)c5)Oc5cc4cc(c5O[C@@H]4O[C@H](CO)[C@@H](O)[C@H](O)[C@H]4O[C@H]4C[C@](C)(N)[C@H](O)[C@H](C)O4)Oc4ccc(cc4Cl)[C@H]3O)CC2)C1=O)C(N)=O` (stereo partly shown) [VN-R3C-C16], the MIC median was determined as 2.45 µg/mL (≈ 0.982 µM) and the MIC range was in the range of 2.45 to 4.89 µg/mL.

In turn, `CCCCCCCCCCCCCCCCCC(=O)N[C@@H](CCCNC(=N)N)C(=O)N[C@@H](CCCNC(=N)N)C(=O)N[C@@H](CCCNC(=N)N)C(=O)N[C@@H](CSC1CC(=O)N(CC2CCC(C(=O)N(C)[C@H](CC(C)C)C(=O)N[C@H]3C(=O)N[C@@H](CC(N)=O)C(=O)N[C@H]4C(=O)N[C@H]5C(=O)N[C@H](C(=O)N[C@H](C(=O)O)c6cc(O)cc(O)c6-c6cc5ccc6O)[C@H](O)c5ccc(c(Cl)c5)Oc5cc4cc(c5O[C@@H]4O[C@H](CO)[C@@H](O)[C@H](O)[C@H]4O[C@H]4C[C@](C)(N)[C@H](O)[C@H](C)O4)Oc4ccc(cc4Cl)[C@H]3O)CC2)C1=O)C(N)=O` (stereo partly shown) [VN-R3C-C18] returned an MIC median of 4.97 µg/mL (≈ 1.97 µM) and an MIC range of 2.48 to 4.97 µg/mL.
